{"source": "patent US12691143B2", "about": "“Method for treating cancer” (priority 2020, dated 2026)", "key": {"KU19-19 cells": {"test_system": "KU19-19 cells", "assay": "Irofulven sensitivity after siRNA depletion of NER genes", "format": "cell-based", "text": "Bladder cancer cell lines were purchased from ATCC. The KE1 bladder cancer cell line is a derivative of KU19-19 in which an ERCC2 T484 mutation has been introduced by CRISPR/Cas9 gene editing as previously described (6). The MDA-MB-468 breast cancer cell line and its ERCC4-complemented derivative have been previously described (35). Small interfering RNAs (siRNAs) targeting specific NER genes as well as a non-targeting siRNA (siNTC) were purchased from Integrated DNA Technologies Inc. (Coralville, IA, USA; see Table 9 for sequences). Cells were seeded in 6-well plates and grown to 50% confluency. A transfection mixture containing siRNA diluted to a final concentration of 30 nM in Opti-MEM media containing Lipofectamine 3000 (Life Technologies; Carlsbad, CA) was then added to cells. After 48 hours, cells were trypsinized and re-aliquoted to separate wells and transfected with 15 nM siRNA for 24 hours immediately prior to viability assays performed as described below. […]\nCells were seeded in either 96-well (5,000 cells/well) or 24-well (20,000 cells/well) plates. […] Plates were scanned using a luminescence microplate reader (BioTek). […]"}, "[1]": {"test_system": "variety of tumor types, biomarker-unselected populations", "conditions": "single agent, Phase I/II clinical trials; cited from earlier work"}, "[2]": {"test_system": "bladder cancer cell lines", "assay": "In vitro drug sensitivity assay / crystal violet staining, cell line panel", "format": "cell-based", "conditions": "most bladder cancer cell lines", "method": "(§1) Cells were seeded in either 96-well (5,000 cells/well) or 24-well (20,000 cells/well) plates. The following day, irofulven and cisplatin stock solutions were serially diluted in media and added to cells. After 48 to 72 hours, media was removed and CellTiter-Glo® reagent (Promega; Madison, WI) was added. Plates were scanned using a luminescence microplate reader (BioTek). Survival at each drug concentration was plotted as a percentage of survival in drug-free media with error bars representing the standard deviation of at least three experiments.\nFor crystal violet imaging experiments, cells were seeded in 6-well plates (100,000-200,000 cells/well) with 15 nM siRNA transfection mixture (as detailed above). At 24 hours, fresh media containing irofulven or PBS was added and the cells were incubated for an additional 72 hours. Cells were then fixed in formalin solution for 30 minutes and stained with crystal violet prepared in equal volumes of methanol and water. Excess crystal violet was removed by washing with PBS, and plates were then dried and imaged."}, "[3]": {"test_system": "cisplatin-resistant MDA-MB-468 cell line", "assay": "In vitro drug sensitivity assay in cisplatin-resistant derivative", "format": "cell-based", "conditions": "cisplatin-resistant derivative of NER-deficient MDA-MB-468", "method": "as §1\nPlatinum-based chemotherapy is a first-line treatment for numerous solid malignancies including bladder cancer, but platinum resistance frequently occurs and represents a challenging clinical problem. Although a variety of platinum resistance mechanisms have been characterized, restoration or upregulation of DNA repair is a common mechanism of resistance, particularly in HR-deficient breast and ovarian tumors^33. Mechanisms of platinum resistance in NER deficient tumors have not been characterized, and we wished to determine if acquired resistance to cisplatin would confer cross-resistance to irofulven through restoration of NER. To test this, we derived cisplatin resistance in the NER-deficient MDA-MB-468 cell line by gradual exposure to escalating doses of cisplatin (Methods)."}, "[4]": {"test_system": "non-tumor cell lines with a TC-NER or common NER pathway gene defect", "conditions": "cited from earlier work"}, "[5]": {"test_system": "KU19-19 bladder cancer cell line (NER-proficient)", "assay": "In vitro drug sensitivity assay (CellTiter-Glo)", "format": "cell-based", "conditions": "NER-proficient KU19-19; 48 to 72 hours", "method": "as §1"}}, "note": "“Also recorded” adds a separate entry of the source.", "data": [{"smiles": "CC1=C(CO)C2=C(C)C3(CC3)[C@@](C)(O)C(=O)C2=C1", "note": "[irofulven]", "values": [{"measurement": "irofulven sensitivity after gene depletion", "setting": "KU19-19 cells; siRNA depletion of GG-NER gene DDB2", "value": "minimal impact"}, {"measurement": "irofulven sensitivity after gene depletion", "setting": "KU19-19 cells; siRNA depletion of TC-NER gene ERCC6 or common NER gene ERCC3", "value": "significantly higher irofulven sensitivity; also recorded: sufficient to increase irofulven sensitivity"}, {"measurement": "tolerability", "setting": "[1]", "value": "well-tolerated"}, {"measurement": "irofulven sensitivity", "setting": "[2]", "value": "resistant; also recorded: minimal sensitivity"}, {"measurement": "irofulven sensitivity", "setting": "[3]", "value": "remains sensitive; also recorded: highly sensitive"}, {"measurement": "toxicity to cells from patients with inactivating mutations in a TC-NER or common NER gene", "setting": "[4]", "value": "highly toxic"}, {"measurement": "drug sensitivity (survival as percentage of drug-free media)", "setting": "[5]", "value": "minimal sensitivity"}]}]}
